# Test results published in patent publication US6905840B1, “Double motor mutant assay for antifungal agents” (Cytokinetics, Inc., priority 2003, dated 2005).
# Tests used:
# [1] = system: kip3-30(ts) kar3Δ (DS752) double mutant; test: Benomyl suppression of lethality of the kip3-30(ts) kar3 double mutant, spot growth on YPD; type: cell-based, Saccharomyces cerevisiae; settings: medium containing a low concentration of benomyl, restrictive temperature (FIG. 1C)
# [2] = system: kip3-20(ts) dyn1Δ (DS765) double mutant; test: Benomyl suppression of lethality of the kip3(ts) dyn1 double mutant, spot growth on YPD; type: cell-based, Saccharomyces cerevisiae; settings: 37° C., solid YPD medium with 1% DMSO, 5 or 10 μg/ml benomyl, 3 d; little growth in the absence of benomyl
# Experimental: Since one phenotype of the kip3 single mutant and the kip3(ts) dyn1 double mutant is increased microtubule abundance, it was tested whether the microtubule-depolymerizing drug benomyl could suppress the lethality of the kip3(ts) dyn1 double mutant.
structure (smiles),measurement,setting,value
CCCCNC(=O)n1c(NC(=O)OC)nc2ccccc21 [benomyl],lethality of the kip3-30(ts) kar3 double mutant,[1],partially suppressed
same,growth of the kip3(ts) dyn1 double mutant (suppression of lethality),[2],significant growth
